Results published in patent US8546404B2, “Compounds that are ERK inhibitors” (Merck Sharp & Dohme, priority 2005, dated 2013).

Key:
[1] = biological target: fully phosphorylated, active Mouse ERK2 protein (Mus musculus (Mouse), UniProt P63085); assay: Active ERK2 Assay (IMAP format); assay type: biochemical; settings: read-out: AERK2 IC50
Description: Activated ERK2 activity was also determined in the IMAP assay format using the procedure outlined above. […] Reactions proceeded for 30 minutes before termination by addition of 60 μl IMAP detection beads in binding buffer. Plates were read as above after 30 minute binding equilibration.

[2] = Cassette Accelerating Rapid Rat Screen (CARRS), AUC during the first 6 hours; assay type: in vivo, Male Sprague-Dawley rats; settings: male, Sprague-Dawley, plasma, 10 mg/kg, PO, AUC during the first 6 hours (AUC6hr)
Description: The AUC (Area Under the Concentration-Time Curve During the First 6 Hours (AUC6hr) in Table 30 Below was Determined Using the Protocol of Cassette Accelerating Rapid Rat Screen (CARRS)
Animal Dosing and Sample Collection
Male Sprague-Dawley rats (Charles River, Co.) were pre-cannulated (femoral artery) in order to facilitate precise blood sampling times, and to reduce the stress on the animals caused by serial bleedings. Following an overnight fast, two rats were dosed orally with one compound at a dose of 10 mg/kg in a 5-mL/kg dose volume. Blood was collected into heparin-containing tubes serially from each animal at 0.5, 1, 2, 3, 4 and 6 h post-dosing and centrifuged to generate plasma. Approximately 100 μL of plasma were collected at the individual time points. The plasma samples were stored at −20° C. until analysis.
Plasma Sample and Standard Curve Preparation
A set of 12 rat plasma samples was generated for each NCE (i.e. 6 timepoints and n=2 rats). These 12 samples were pooled across the two rats at each timepoint to provide 6 pooled samples (one sample per time point) for each NCE. The pooled samples were assayed as cassettes of six (36 samples total) to provide data on the six compounds. The 50-μL aliquots of the 36 plasma samples were placed into individual wells of a 96-well plate. An additional compound (often a structural analog of the test compounds) was selected as the internal standard. A mini-calibration curve was prepared (three points plus a zero) for each compound assayed. Drug-free rat plasma was measured into 1-mL aliquots and each aliquot was spiked with known concentrations of the compounds to generate standards of the desired concentrations. The concentrations of the standards were chosen to bracket the expected concentration of the pooled samples based on historical data from previous studies on other compounds. For this work, the standards were set to contain concentrations of 25, 250 and 2500 ng NCE/mL plasma. The plasma standards were precipitated in duplicate along with the samples. Protein precipitation occurred after addition of 150 μL of acetonitrile containing the internal standard at a concentration of 1 ng/mL into each sample well using the Tomtec Quadra 96 system. The precipitated samples and standards were vortexed and centrifuged in the 96-well plate. Approximately 50-100 μL of the supernatant were removed and placed into a fresh 96-well plate using the Tomtec Quadra 96 system. A volume of 5-10 μL of the supernatant was used for analysis by HPLC-MS/MS. The mini-standard curve was run in duplicate, once before and once after the samples. Thus, a total of 14 study samples plus standards were analyzed per compound. In addition, solvent blanks were injected before and after each set of 14 and after the highest calibration standard for each compound; therefore, a total of 103 injections were made into each HPLC system for each set of six compounds. Multiple solvent blank injections could be made from a single well. Twelve solvent blank wells were designated in each 96-well plate. Thus, one batch (cassette) of six NCEs was prepared and assayed using one 96-well plate format.
All the compounds were analyzed using selected reaction monitoring (SRM) methods with LC/MS/MS instruments. Once the method development had been completed, the assay was quickly set up using a standard injection sequence template for the CARRS assay.

Sequence of fully phosphorylated, active Mouse ERK2 protein (P63085 whole entry): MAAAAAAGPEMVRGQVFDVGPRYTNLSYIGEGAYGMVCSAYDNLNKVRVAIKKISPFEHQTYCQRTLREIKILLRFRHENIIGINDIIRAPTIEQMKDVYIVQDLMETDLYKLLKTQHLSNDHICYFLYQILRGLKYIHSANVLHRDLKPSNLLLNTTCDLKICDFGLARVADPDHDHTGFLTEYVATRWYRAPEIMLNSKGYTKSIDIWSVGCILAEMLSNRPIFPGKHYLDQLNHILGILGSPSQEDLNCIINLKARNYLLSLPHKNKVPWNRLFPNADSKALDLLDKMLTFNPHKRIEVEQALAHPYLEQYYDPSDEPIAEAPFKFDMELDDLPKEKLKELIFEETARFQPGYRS

| Compound | IC50 [1] [nM] | AUC [2] [µM·h] |
| --- | --- | --- |
| CO[C@@]1(C(=O)Nc2ccc3[nH]nc(-c4ccnc(C5CC5)c4)c3c2)CCN(CC(=O)N2CC=C(c3ccc(-c4ncccn4)cc3)CC2)C1 [Example 459] | 2.5 | 1.2 |
| CCNc1nnc(-c2ccc(C3=CCN(C(=O)CN4CC[C@@](OC)(C(=O)Nc5ccc6[nH]nc(-c7ccc(F)cc7)c6c5)C4)CC3)c(F)c2)o1 [Example 622, 1-(2-{4-[4-(5-Ethylamino-[1,3,4]oxadiazol-2-yl)-2-fluoro-phenyl]-3,6-dihydro-2H-pyridin-1-yl}-2-oxo-ethyl)-3-methoxy-pyrrolidine-3-carboxylic acid [3-(4-fluoro-phenyl)-1 indazol-5-yl]-amide] | 5 | 1.13 |
| CO[C@@]1(C(=O)Nc2ccc3[nH]nc(-c4ccc(F)cc4)c3c2)CCN(CC(=O)N2CC=C(c3ccc(-c4ncccn4)cc3F)CC2)C1 [Example 825] | 20 | 1.1 |
| CS[C@@]1(C(=O)Nc2ccc3[nH]nc(-c4ccc(F)cc4)c3c2)CCN(CC(=O)N2CC=C(c3ccc(-c4ncccn4)cc3)CC2)C1 [Example 613] | 10 | 25.9 |
| CO[C@@]1(C(=O)Nc2ccc3[nH]nc(-c4ccc(F)cc4)c3c2)CCN(CC(=O)N2CCC(c3ccc(-c4ncccn4)cc3)CC2)C1 [Example 479] | 9.1 | 2.2 |
